Results on 38 molecules are retold here after PMC5696560 (Bioorganic & Medicinal Chemistry Letters, 2017).

What all share (format): cell-based
Assay [1] concerns M.tb strain H37Rv. In words: MABA: inhibition of growth of M.tb H37Rv under aerobic (replicating) conditions. Conditions: for MIC90 / MIC: Mycobacterium tuberculosis, H37RV; for MIC: read-out: MIC90 MABA; for anti-M.tb activity (in words): M.tb H37Rv, comparison with 1.
Assay [2] has as its system M.tb strain H37Rv. Put plainly: LORA: inhibition of growth of M.tb H37Rv under non-replicating conditions. Conditions: Mycobacterium tuberculosis. Here is the method:
The compounds were evaluated for their inhibition of growth (measured as MIC90 values in µg/mL) against M.tb (strain H37Rv) under both replicating (MABA)[16] or non-replicating (LORA)[17] conditions. […] In a search for less lipophilic analogues, we prepared and evaluated compounds where this phenyl B-ring unit was replaced with different heterocycles of varying lipophilicity (Table 1).

The test system of assay [3] is M.tb strain H37Rv. Put plainly: MICs determined at Tibotec (slightly different protocol). Conditions: Mycobacterium tuberculosis, MICs determined at Tibotec (Mechelen, Belgium), read-out: MIC90 (MABA, footnote d). The source says:
Given that good activity had been reported for furan 2 (albeit in M. smegmatis),[11] we evaluated a series of both 2- and 3-furyl analogues bearing different C-unit substituents.

Converted amounts (≈) assume the structure as drawn. Where only a bound is given, the exact number is not on record here.

By MIC90 is commonly meant an inhibitory concentration at the 90% level, which refers to growth in some studies and to a panel of isolates in others.

With `COc1nc2ccc(Br)cc2cc1[C@@H](c1cncc(C)c1)[C@@](O)(CCN(C)C)c1cccc(C#N)c1` [Compound 41], the MIC90 in the assay on M.tb strain H37Rv [1] was 1.32 µg/mL (≈ 2.42 µM); against M.tb strain H37Rv [2] it was 3.38 µg/mL (≈ 6.2 µM).

Consider `COc1ncccc1[C@H](c1cc2cc(C#N)ccc2nc1OC)[C@@](O)(CCN(C)C)c1cccc(C#N)c1` [Compound 34], for which the results for the MIC90 in the assay on M.tb strain H37Rv [1] and against M.tb strain H37Rv [2] were 0.38 µg/mL (≈ 0.749 µM) and 0.82 µg/mL (≈ 1.62 µM), respectively.

Take `COc1nc2ccc(Br)cc2cc1C(c1ccco1)C(O)(CCN(C)C)c1cccc2c1OCO2` (stereo not shown) [Compound 19]: the MIC90 in the assay on M.tb strain H37Rv [3] was 0.69 µg/mL (≈ 1.28 µM).

As to `COc1nc2ccc(Br)cc2cc1C(c1ccoc1)C(O)(CCN(C)C)c1ccccn1` (stereo not shown) [Compound 28], in the assay with M.tb strain H37Rv [3], the MIC90 came to 1.8 µg/mL (≈ 3.63 µM).

As to `COc1nc2ccc(Br)cc2cc1[C@@H](c1ccc(SC)nc1)[C@@](O)(CCN(C)C)c1cccc(F)c1` [Compound 38], the MIC90 in the assay with M.tb strain H37Rv [1] came to 0.14 µg/mL (≈ 0.245 µM); against M.tb strain H37Rv [2], 0.37 µg/mL (≈ 0.649 µM).

With `COc1cccc([C@](O)(CCN(C)C)[C@H](c2cncc(C)c2)c2cc3cc(Br)ccc3nc2OC)c1` [Compound 40], the values for the MIC90 in the assay on M.tb strain H37Rv [1] and against M.tb strain H37Rv [2] were 1.9 µg/mL (≈ 3.45 µM) and 2.2 µg/mL (≈ 4 µM), respectively.

`COc1nc2ccc(Br)cc2cc1C(c1ccco1)C(O)(CCN(C)C)c1cccc(F)c1` (stereo not shown) [Compound 15]: the MIC90 in the assay on M.tb strain H37Rv [3] worked out at 0.74 µg/mL (≈ 1.44 µM).

Regarding `COc1cccc([C@](O)(CCN(C)C)[C@@H](c2cc3cc(Br)ccc3nc2OC)c2cc(C)sc2C)c1OC` (racemic) [Compound 4], the MIC90 against M.tb strain H37Rv [1] worked out at 0.5 µg/mL (≈ 0.834 µM); with M.tb strain H37Rv [2], 0.27 µg/mL (≈ 0.45 µM). The MIC in the assay with M.tb strain H37Rv [1] fell in the range of 0.05 to 0.58 µg/mL (≈ 0.0834 to 0.967 µM).

Turning to `COc1nc2ccc(C#N)cc2cc1[C@@H](c1ccnc(OC)c1OC)[C@@](O)(CCN(C)C)c1cccc(C)c1` [Compound 46], the MIC90 stood at 0.15 µg/mL (≈ 0.285 µM) in the assay with M.tb strain H37Rv [1] and 0.14 µg/mL (≈ 0.266 µM) with M.tb strain H37Rv [2].

`COc1ncccc1[C@H](c1cc2cc(Br)ccc2nc1OC)[C@@](O)(CCN(C)C)c1cccc(C)c1` [Compound 30]: the MIC90 in the assay on M.tb strain H37Rv [1] amounted to 0.13 µg/mL (≈ 0.236 µM); against M.tb strain H37Rv [2], 0.25 µg/mL (≈ 0.454 µM).

`COc1ccc(C(c2cc3cc(C#N)ccc3nc2OC)C(O)(CCN(C)C)c2cccc(F)c2)s1` (stereo not shown) [Compound 14]: in the assay on M.tb strain H37Rv [3], the MIC90 was found to be 0.7 µg/mL (≈ 1.38 µM).

Take `COc1nc2ccc(Br)cc2cc1[C@@H](c1cc(C)sc1C)[C@@](O)(CCN(C)C)c1cccnc1OC` [Compound 8]: the MIC90 against M.tb strain H37Rv [1] is 0.12 µg/mL (≈ 0.21 µM); against M.tb strain H37Rv [2], 0.2 µg/mL (≈ 0.351 µM). Further, the MIC with M.tb strain H37Rv [1] lay within 0.05 to 0.58 µg/mL (≈ 0.0876 to 1.02 µM).

For `COc1nc2ccc(Br)cc2cc1[C@@H](c1cc(C)sc1C)[C@@](O)(CCN(C)C)c1cccc(C#N)c1` [Compound 3, 3-(1-(6-Bromo-2-methoxyquinolin-3-yl)-4-(dimethylamino)-1-(2,5-dimethylthiophen-3-yl)-2-hydroxybutan-2-yl)benzonitrile], in the assay with M.tb strain H37Rv [1], the MIC90 was determined as 0.12 µg/mL (≈ 0.213 µM) and the MIC lay in the range of 0.05 to 0.58 µg/mL (≈ 0.0886 to 1.03 µM).

On to `COc1nc2ccc(Br)cc2cc1C(c1ccco1)C(O)(CCN(C)C)c1cccc(C#N)c1` (stereo not shown) [Compound 21], for which the MIC90 in the assay with M.tb strain H37Rv [3] was 1.96 µg/mL (≈ 3.77 µM).

Take `COc1nc2ccc(Br)cc2cc1C(c1ccc(C)s1)C(O)(CCN(C)C)c1cccc(F)c1` (stereo not shown) [Compound 11]: in the assay with M.tb strain H37Rv [3], the MIC90 stood at 0.47 µg/mL (≈ 0.865 µM).

For the molecule `COc1ccc([C@H](c2cc3cc(Br)ccc3nc2OC)[C@@](O)(CCN(C)C)c2cccnc2OC)s1` [Compound 13], in the assay on M.tb strain H37Rv [1], the “anti-M.tb activity (in words)” value was “effective inhibitors” and the MIC90 came to 0.24 µg/mL (≈ 0.419 µM). Also, the MIC90 in the assay on M.tb strain H37Rv [2] is 0.53 µg/mL (≈ 0.926 µM).

Consider `COc1nc2ccc(Br)cc2cc1C(c1ccoc1)C(O)(CCN(C)C)c1cccc(OC(F)(F)F)c1` (stereo not shown) [Compound 25], for which the MIC90 in the assay with M.tb strain H37Rv [3] came out at 0.76 µg/mL (≈ 1.31 µM).

In turn, `CCN(CC)c1ccc([C@H](c2cc3cc(Br)ccc3nc2OC)[C@@](O)(CCN(C)C)c2cccc(F)c2)cn1` [Compound 37] displayed an MIC90 against M.tb strain H37Rv [1] of 0.02 µg/mL (≈ 0.0336 µM).

Take `COc1nc2ccc(Br)cc2cc1C(c1ccco1)C(O)(CCN(C)C)c1ccccn1` (stereo not shown) [Compound 20]: the MIC90 with M.tb strain H37Rv [3] was 1.95 µg/mL (≈ 3.93 µM).

Consider `COc1cccc([C@](O)(CCN(C)C)[C@@H](c2cc3cc(Br)ccc3nc2OC)c2ccnc(OC)c2OC)c1` [Compound 47], for which, in the assay with M.tb strain H37Rv [1], the “anti-M.tb activity (in words)” value is “retain the potency of 1” and the MIC90 is under 0.02 µg/mL.

For `COc1nc2ccc(Br)cc2cc1C(c1ccoc1)C(O)(CCN(C)C)c1cccc(F)n1` (stereo not shown) [Compound 24], the MIC90 with M.tb strain H37Rv [3] was found to be 0.68 µg/mL (≈ 1.32 µM).

Turning to `COc1nc2ccc(Br)cc2cc1[C@@H](c1ccc(C)s1)[C@@](O)(CCN(C)C)c1cccnc1OC` [Compound 12], in the assay on M.tb strain H37Rv [1], the “anti-M.tb activity (in words)” value is on record as “effective inhibitors” and the MIC90 was determined as 0.22 µg/mL (≈ 0.395 µM). This molecule gave an MIC90 in the assay on M.tb strain H37Rv [2] of 0.52 µg/mL (≈ 0.934 µM).

Turning to `COc1cccc(C(O)(CCN(C)C)C(c2ccoc2)c2cc3cc(Br)ccc3nc2OC)c1OC` (stereo not shown) [Compound 26], the MIC90 in the assay with M.tb strain H37Rv [3] worked out at 1.16 µg/mL (≈ 2.09 µM).

Consider `COc1nc2ccc(Br)cc2cc1C(c1ccco1)C(O)(CCN(C)C)c1cccc(OC(F)(F)F)c1` (stereo not shown) [Compound 17], for which the MIC90 in the assay on M.tb strain H37Rv [3] was determined as 0.76 µg/mL (≈ 1.31 µM).

With `COc1nc2ccc(C#N)cc2cc1[C@@H](c1cc(C)c(C)s1)[C@@](O)(CCN(C)C)c1cccc(F)c1` [Compound 10], in the assay with M.tb strain H37Rv [1], the “anti-M.tb activity (in words)” value was “equally potent”, the MIC90 amounted to 0.05 µg/mL (≈ 0.0993 µM) and the MIC lay in the range of 0.05 to 0.58 µg/mL (≈ 0.0993 to 1.15 µM). This molecule showed an MIC90 with M.tb strain H37Rv [2] of 0.2 µg/mL (≈ 0.397 µM).

On to `COc1nc2ccc(C#N)cc2cc1C(c1ccco1)C(O)(CCN(C)C)c1cccc(F)c1` (stereo not shown) [Compound 16], for which, in the assay on M.tb strain H37Rv [3], the MIC90 turned out to be 1.79 µg/mL (≈ 3.9 µM).

Take `COc1nc2ccc(Br)cc2cc1[C@@H](c1ccnc(OC)c1OC)[C@@](O)(CCN(C)C)c1cccc(F)c1` [Compound 44]: the MIC90 with M.tb strain H37Rv [1] came to 0.02 µg/mL (≈ 0.0342 µM); against M.tb strain H37Rv [2] it was 0.07 µg/mL (≈ 0.12 µM).

For the molecule `COc1nc2ccc(Br)cc2cc1C(c1ccoc1)C(O)(CCN(C)C)c1cccc2c1OCO2` (stereo not shown) [Compound 27], in the assay with M.tb strain H37Rv [3], the MIC90 amounted to 0.9 µg/mL (≈ 1.67 µM).

`COc1nc2ccc(Br)cc2cc1C(c1ccoc1)C(O)(CCN(C)C)c1cccc(F)c1` (stereo not shown) [Compound 22, 1-(6-Bromo-2-methoxyquinolin-3-yl)-4-(dimethylamino)-2-(3-fluorophenyl)-1-(furan-3-yl)butan-2-ol]: in the assay with M.tb strain H37Rv [3], the MIC90 came out at 0.74 µg/mL (≈ 1.44 µM).

In the case of `COc1cccc(C(O)(CCN(C)C)C(c2ccco2)c2cc3cc(Br)ccc3nc2OC)c1OC` (stereo not shown) [Compound 18], the MIC90 with M.tb strain H37Rv [3] came to 0.71 µg/mL (≈ 1.28 µM).

In the case of `COc1nc2ccc(Br)cc2cc1[C@@H](c1cc(C)sc1C)[C@@](O)(CCN(C)C)c1cncc(C)c1` (racemic) [Compound 6], the MIC90 amounted to 0.58 µg/mL (≈ 1.05 µM) in the assay on M.tb strain H37Rv [1] and 0.3 µg/mL (≈ 0.541 µM) against M.tb strain H37Rv [2]. Also, in the assay with M.tb strain H37Rv [1], the MIC fell in the range of 0.05 to 0.58 µg/mL (≈ 0.0902 to 1.05 µM).

Turning to `COc1cccc([C@](O)(CCN(C)C)[C@@H](c2cc3cc(Br)ccc3nc2OC)c2cc(C)sc2C)n1` [Compound 5], the MIC90 with M.tb strain H37Rv [1] is 0.12 µg/mL (≈ 0.21 µM); with M.tb strain H37Rv [2] it was 0.15 µg/mL (≈ 0.263 µM). The MIC with M.tb strain H37Rv [1] was in the range of 0.05 to 0.58 µg/mL (≈ 0.0876 to 1.02 µM).

As to `COc1nc2ccc(C#N)cc2cc1[C@@H](c1cc(C)sc1C)[C@@](O)(CCN(C)C)c1cncc(C)c1` [Compound 7], in the assay with M.tb strain H37Rv [1], the “anti-M.tb activity (in words)” value is listed as “less active”, the MIC90 amounted to 1.94 µg/mL (≈ 3.87 µM) and the MIC lay in the range of 0.05 to 0.58 µg/mL (≈ 0.0999 to 1.16 µM). In the assay on M.tb strain H37Rv [2], this molecule displayed an MIC90 of 1.1 µg/mL (≈ 2.2 µM).

Regarding `COc1ncccc1C(c1cc2cc(Br)ccc2nc1OC)C(O)(CCN(C)C)c1cccc(F)c1` (stereo not shown) [Compound 29], the MIC90 in the assay with M.tb strain H37Rv [3] came out at 0.12 µg/mL (≈ 0.216 µM).

Regarding `COc1ncccc1[C@H](c1cc2cc(C#N)ccc2nc1OC)[C@@](O)(CCN(C)C)c1cccc(C)c1` [Compound 31], the results for the MIC90 against M.tb strain H37Rv [1] and in the assay on M.tb strain H37Rv [2] were 0.3 µg/mL (≈ 0.604 µM) and 0.15 µg/mL (≈ 0.302 µM), respectively.

`COc1ncccc1[C@H](c1cc2cc(Br)ccc2nc1OC)[C@@](O)(CCN(C)C)c1cccc(C#N)c1` [Compound 33]: the MIC90 worked out at 0.34 µg/mL (≈ 0.606 µM) against M.tb strain H37Rv [1] and 0.75 µg/mL (≈ 1.34 µM) in the assay on M.tb strain H37Rv [2].

Consider `COc1cccc([C@](O)(CCN(C)C)[C@@H](c2cc3cc(Br)ccc3nc2OC)c2ccnc(OC)c2OC)c1OC` [Compound 50], for which the MIC90 with M.tb strain H37Rv [3] amounted to 0.21 µg/mL (≈ 0.335 µM).

With `COc1nc2ccc(C#N)cc2cc1C(c1ccoc1)C(O)(CCN(C)C)c1cccc(F)c1` (stereo not shown) [Compound 23], the MIC90 in the assay with M.tb strain H37Rv [3] turned out to be 1.08 µg/mL (≈ 2.35 µM).
